# Data taken from patent US20040242650A1, “Extended dosing regimen” (priority 2003, published 2004).
# Where two headings read alike, the source gives them in different places.
# Assay: Pharmacokinetic profiles of patients on the extended dosing regimen (plasma, LCMS/MS, day 15)
# Assay type: in vivo
# Conditions: for AUC / half-life / Cmax / concentration at 15 day / Tmax: human, plasma, po; for concentration at 15 day: read-out: Cmin
# Experimental: A total of 43 patients were enrolled in the study. The tumor types were as follows: colorectal (23), sarcoma (5), mesothelioma (3), salivary gland (2), endometrial (2), unknown (2), hepatoma (1), melanoma (1), renal cell (1), lung (1), ovary (1), and granulosa cell (1). Patients were treated once a day (QD) or twice a day (BID) for 21 days with N-[2-[(4-hydroxyphenyl)amino]-3-pyridyl]-4-methoxybenzenesulfonamide followed by a 7-day period where no drug was received. Doses were escalated by 50 mg/day (25 mg BID). Three patients were initially treated at each dose level. […] If additional patients experienced dose-limiting toxicity, on occasion the dose level was expanded to nine patients to further assess tolerability. Response assessment was performed every two cycles.
# In evaluating the pharmacokinetic profiles of the patients, plasma samples were collected pre-dose and over 6 hours following dosing on day 15. Plasma concentrations of N-[2-[(4-hydroxyphenyl)amino]-3-pyridyl]-4-methoxybenzenesulfonamide were determined by a validated LCMS/MS assay. Pharmacokinetic parameter estimates were obtained using noncompartmental methods, and included maximum observed concentration (Cmax), time to Cmax (Tmax), minimum observed concentration (Cmin), half-life (t1/2), and area under the plasma concentration-time profile over a dosing interval (AUCτ). To facilitate calculation of day 15 AUCs, pre-dose concentrations at the beginning and end of the dosing interval were assumed to be equal. Results are summarized below (Table 2).
# [1] = 25 mg, 25 mg BID oral, day 15, plasma, N=2
# [2] = 25 mg, 25 mg QD oral, day 15, plasma, N=4
# [3] = 50 mg, 50 mg BID oral, day 15, plasma, N=2
# [4] = 50 mg, 50 mg QD oral, day 15, plasma, N=3
# [5] = 75 mg, 75 mg BID oral, day 15, plasma, N=3
# [6] = 100 mg, 100 mg BID oral, day 15, plasma, N=3
# [7] = 100 mg, 100 mg QD oral, day 15, plasma, N=3
# [8] = 200 mg, 200 mg QD oral, day 15, plasma, N=2
smiles,measurement,setting,value
COc1ccc(S(=O)(=O)Nc2cccnc2Nc2ccc(O)cc2)cc1 [N-[2-[(4-hydroxyphenyl)amino]-3-pyridyl]-4-methoxybenzenesulfonamide],Cmin,"150 mg QD oral, day 15, plasma, N=3",700 ± 400 ng/mL
same,accumulation of plasma concentrations,QD or BID dosing,accumulated minimally
same,variation of Tmax and t1/2 with dose,across doses studied,did not appear to vary with dose
same,dose proportionality of plasma concentrations,across the range of doses studied,dose-proportional (linear) pharmacokinetics
same,"Cmin concentrations, BID vs QD regimens",for a given daily dose,tended to be greater for BID regimens compared to QD regimens
same,AUC,"25 mg, 25 mg BID oral, day 15, N=2, AUC0-12",9100 ± 400 ng·h/mL
same,half-life,"25 mg, 25 mg BID oral, day 15, N=2, harmonic mean and pseudo standard deviation, read-out: t1/2 (converted)",3.8 ± 1.7 h
same,Cmax,[1],2000 ± 600 ng/mL
same,concentration at 15 day,[1],300 ng/mL
same,Tmax,"25 mg, 25 mg BID oral, day 15, plasma, N=2, read-out: Tmax",2.3 ± 2.5 h
same,AUC,"25 mg, 25 mg QD oral, day 15, N=4, AUC0-24",9000 ± 2900 ng·h/mL
same,half-life,"25 mg, 25 mg QD oral, day 15, N=4, harmonic mean and pseudo standard deviation, read-out: t1/2 (converted)",6.3 ± 0.2 h
same,Cmax,[2],1700 ± 300 ng/mL
same,concentration at 15 day,[2],100 ng/mL
same,Tmax,"25 mg, 25 mg QD oral, day 15, plasma, N=4, read-out: Tmax",1.3 ± 0.5 h
same,AUC,"50 mg, 50 mg BID oral, day 15, N=2, AUC0-12",16400 ± 3200 ng·h/mL
same,half-life,"50 mg, 50 mg BID oral, day 15, N=2, harmonic mean and pseudo standard deviation, read-out: t1/2 (converted)",4 ± 0.6 h
same,Cmax,[3],5000 ± 900 ng/mL
same,concentration at 15 day,[3],400 ± 200 ng/mL
same,Tmax,"50 mg, 50 mg BID oral, day 15, plasma, N=2, read-out: Tmax",0.5 h
same,AUC,"50 mg, 50 mg QD oral, day 15, N=3, AUC0-24",20400 ± 5000 ng·h/mL
same,half-life,"50 mg, 50 mg QD oral, day 15, N=3, harmonic mean and pseudo standard deviation, read-out: t1/2 (converted)",4.6 ± 2.4 h
same,Cmax,[4],3500 ± 200 ng/mL
same,concentration at 15 day,[4],100 ± 100 ng/mL
same,Tmax,"50 mg, 50 mg QD oral, day 15, plasma, N=3, read-out: Tmax",1.7 ± 0.6 h
same,AUC,"75 mg, 75 mg BID oral, day 15, N=3, AUC0-12",17000 ± 3600 ng·h/mL
same,half-life,"75 mg, 75 mg BID oral, day 15, N=3, harmonic mean and pseudo standard deviation, read-out: t1/2 (converted)",5.3 ± 0.9 h
same,Cmax,[5],3700 ± 1200 ng/mL
same,concentration at 15 day,[5],600 ng/mL
same,Tmax,"75 mg, 75 mg BID oral, day 15, plasma, N=3, read-out: Tmax",1.5 ± 0.9 h
same,AUC,"100 mg, 100 mg BID oral, day 15, N=3, AUC0-12",24100 ± 10000 ng·h/mL
same,half-life,"100 mg, 100 mg BID oral, day 15, N=3, harmonic mean and pseudo standard deviation, read-out: t1/2 (converted)",6.1 ± 2.3 h
same,Cmax,[6],3500 ± 1300 ng/mL
same,concentration at 15 day,[6],900 ± 400 ng/mL
same,Tmax,"100 mg, 100 mg BID oral, day 15, plasma, N=3, read-out: Tmax",2.3 ± 1.5 h
same,AUC,"100 mg, 100 mg QD oral, day 15, N=3, AUC0-24",39500 ± 7900 ng·h/mL
same,half-life,"100 mg, 100 mg QD oral, day 15, N=3, harmonic mean and pseudo standard deviation, read-out: t1/2 (converted)",5.8 ± 1.3 h
same,Cmax,[7],8400 ± 900 ng/mL
same,concentration at 15 day,[7],200 ± 100 ng/mL
same,Tmax,"100 mg, 100 mg QD oral, day 15, plasma, N=3, read-out: Tmax",1.7 ± 0.6 h
same,AUC,"150 mg, 150 mg QD oral, day 15, N=3, AUC0-24",55100 ± 12200 ng·h/mL
same,half-life,"150 mg, 150 mg QD oral, day 15, N=3, harmonic mean and pseudo standard deviation, read-out: t1/2 (converted)",8.5 ± 1.5 h
same,Cmax,"150 mg, 150 mg QD oral, day 15, plasma, N=3",8200 ± 2300 ng/mL
same,Tmax,"150 mg, 150 mg QD oral, day 15, plasma, N=3, read-out: Tmax",1.2 ± 0.8 h
same,AUC,"200 mg, 200 mg QD oral, day 15, N=2, AUC0-24",60200 ± 34200 ng·h/mL
same,half-life,"200 mg, 200 mg QD oral, day 15, N=2, harmonic mean and pseudo standard deviation, read-out: t1/2 (converted)",7 ± 1 h
same,Cmax,[8],9100 ± 5900 ng/mL
same,concentration at 15 day,[8],500 ± 300 ng/mL
same,Tmax,"200 mg, 200 mg QD oral, day 15, plasma, N=2, read-out: Tmax",2 h
same,Tmax,"oral dosing, all regimens, read-out: overall mean Tmax",1.5 h
same,half-life,"oral dosing, all regimens, read-out: overall mean t1/2 (converted)",6 h
same,absorption following oral dosing,"oral dosing, patients",rapidly absorbed
